Assay results as given in patent publication US11427553B2, “Dihydrooxadiazinones” (Bayer Aktiengesellschaft, priority 2017, dated 2022).

Columns and labels:
[1] = molecular target: human full length PDE3B (Homo sapiens (Human), UniProt Q13370); experiment: Assay 5 PDE3B enzyme inhibition (3H-cAMP SPA); format: biochemical; details: Sf9 cell extract
Description: (§1) The commercially available 3H-cAMP Scintillation Proximity Assay (SPA, Perkin Elmer) system was used for enzyme inhibition studies. For the determination of the in vitro effect of example compounds on the PDE3B reactions 2 μl of the respective example compound solution in DMSO (serial dilutions) were placed in wells of microtiter plates (Isoplate-96/200W; Perkin Elmer). 50 μl of a dilution of PDE3B cell extract from Sf9 cells overexpressing human full length PDE3B (SB Drug Discovery, UK) in buffer A (50 mM Tris/HCl pH 7.5, 8.3 mM MgCl2, 1.7 mM EDTA, 0.2% BSA) was added. The dilution of the PDE3B cell extract was chosen such that the reaction kinetics was linear and less than 70% of the substrate was consumed (typical dilution 1:6000). The reaction was started by addition of 50 μl (0.025 μCi) of 1:2000 in buffer A w/o BSA diluted substrate [8-3H]adenosine 3′, 5′-cyclic phosphate (1 μCi/μl; Perkin Elmer). After incubation at room temperature for 60 min, the reaction was stopped by addition of 25 μl of a suspension containing 18 mg/ml yttrium scintillation proximity beads (Perkin Elmer) in water. The microtiter plates were sealed and measured in a Microbeta scintillation counter (PerkinElmer Wallac). IC50 values were determined from sigmoidal curves by plotting percentage PDE3B activity vs log compound concentration.

[2] = molecular target: human full length PDE3A (Homo sapiens (Human), UniProt Q14432); experiment: Assay 4 PDE3A enzyme inhibition (3H-cAMP SPA); format: biochemical; details: Sf9 cell extract
Description: Assay 4 Method for PDE3A Enzyme Inhibition
as §1, with “PDE3A” for “PDE3B”, “1:5000).” for “1:6000).”

[3] = tested on: HeLa cells; experiment: Assay 1 cell proliferation measurement (CTG, 72 h), HeLa; format: cell-based, human; details: Homo sapiens, HeLa; Assay 1, 72 h, Cell Titer Glo; read-out: HeLa IC50 [nM] (Cervical cancer)
Description: Cell Proliferation Measurement
The antiproliferative activity of the compounds of the general formula (I) was examined in vitro in human cancer cells. For this purpose, the appropriate number of cells (Hela: 800; SK-MEL-3: 1000; A549: 800) were plated in 384-well plates with appropriate growth medium ((A549: DMEM/Ham's F12 (Biochrom; #FG 4815 with stabile Glutamine), FCS 10% final (Biochrom; #S 0415); Hela: DMEM/Ham's F12 (Biochrom; #FG 4815 with stabile Glutamine), FCS 10% final (Biochrom; #S 0415); SK-MEL-3: McCoy's 5A (Biochrom; #F 1015), FCS 10% final (Biochrom; #S 0415), L-Alanyl-L-Glutamine final: 2 mM, (Biochrom; #K 0302)) and incubated at 37° C. overnight. After 24 h, cells on one plate (0 h plate) were treated with 30 μl/cavity of CTG solution (Promega Cell Titer Glo (catalogue #G755B and G756B)) and incubated at room temperature for 10 min, and luminescence was measured by means of a VICTOR V (Perkin Elmer), in order to determine cell viability on commencement of treatment. The cells on the test plate were treated with the compounds of the general formula (I) as and incubated at 37° C. for 72 h. The compounds were added to the cells by means of an HP D300 digital dispenser in a 10-step 2.5-fold dilution series generally starting at a maximum final drug concentration of 100 nM. As control, the cells were treated with vehicle (DMSO at 0.3% final concentration). After 72 h, the cells were treated with 30 μl/cavity of CTG solution (Promega Cell Titer Glo (catalogue #G755B and G756B)) and incubated at room temperature for 10 min. and luminescence was measured by means of a VICTOR V (Perkin Elmer), in order to determine cell viability at the end of treatment. The percentage effect on cell growth and the IC50 derived therefrom were determined for each test substance using the values from the 0 h plate […] and the DMSO control […]. The IC50 values were calculated using a 4-parameter fit.

Sequence of human full length PDE3B (Q13370 whole entry): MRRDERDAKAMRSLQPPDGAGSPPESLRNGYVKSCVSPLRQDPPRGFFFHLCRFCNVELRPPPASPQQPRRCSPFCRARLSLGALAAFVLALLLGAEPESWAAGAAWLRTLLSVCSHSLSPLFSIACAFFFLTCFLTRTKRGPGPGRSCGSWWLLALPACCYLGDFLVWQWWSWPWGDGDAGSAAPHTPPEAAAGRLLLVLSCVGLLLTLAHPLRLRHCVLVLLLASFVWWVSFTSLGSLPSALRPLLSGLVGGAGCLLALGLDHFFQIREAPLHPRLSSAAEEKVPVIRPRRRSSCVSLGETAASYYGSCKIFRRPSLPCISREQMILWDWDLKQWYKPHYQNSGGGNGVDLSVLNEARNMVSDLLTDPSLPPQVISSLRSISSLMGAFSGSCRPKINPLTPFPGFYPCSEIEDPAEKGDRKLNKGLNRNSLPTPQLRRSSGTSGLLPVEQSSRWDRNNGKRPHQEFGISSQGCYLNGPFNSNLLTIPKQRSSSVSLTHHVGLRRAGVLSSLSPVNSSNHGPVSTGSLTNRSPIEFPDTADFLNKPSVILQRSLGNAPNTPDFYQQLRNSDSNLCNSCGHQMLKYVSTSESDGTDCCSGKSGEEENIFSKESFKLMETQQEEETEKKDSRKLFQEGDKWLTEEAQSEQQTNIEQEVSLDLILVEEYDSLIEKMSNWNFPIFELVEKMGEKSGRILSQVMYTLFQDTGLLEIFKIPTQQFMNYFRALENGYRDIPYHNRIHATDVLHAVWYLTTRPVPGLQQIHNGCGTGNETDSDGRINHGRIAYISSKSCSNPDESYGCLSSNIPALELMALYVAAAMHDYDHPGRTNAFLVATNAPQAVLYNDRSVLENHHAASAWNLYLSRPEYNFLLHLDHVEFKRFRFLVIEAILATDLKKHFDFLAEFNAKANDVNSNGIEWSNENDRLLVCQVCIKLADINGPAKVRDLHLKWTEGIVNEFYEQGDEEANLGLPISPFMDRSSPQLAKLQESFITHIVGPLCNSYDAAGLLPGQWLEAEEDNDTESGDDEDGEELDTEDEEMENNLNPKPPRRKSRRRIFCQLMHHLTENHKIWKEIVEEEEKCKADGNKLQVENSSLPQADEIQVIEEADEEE
Sequence of human full length PDE3A (Q14432 whole entry): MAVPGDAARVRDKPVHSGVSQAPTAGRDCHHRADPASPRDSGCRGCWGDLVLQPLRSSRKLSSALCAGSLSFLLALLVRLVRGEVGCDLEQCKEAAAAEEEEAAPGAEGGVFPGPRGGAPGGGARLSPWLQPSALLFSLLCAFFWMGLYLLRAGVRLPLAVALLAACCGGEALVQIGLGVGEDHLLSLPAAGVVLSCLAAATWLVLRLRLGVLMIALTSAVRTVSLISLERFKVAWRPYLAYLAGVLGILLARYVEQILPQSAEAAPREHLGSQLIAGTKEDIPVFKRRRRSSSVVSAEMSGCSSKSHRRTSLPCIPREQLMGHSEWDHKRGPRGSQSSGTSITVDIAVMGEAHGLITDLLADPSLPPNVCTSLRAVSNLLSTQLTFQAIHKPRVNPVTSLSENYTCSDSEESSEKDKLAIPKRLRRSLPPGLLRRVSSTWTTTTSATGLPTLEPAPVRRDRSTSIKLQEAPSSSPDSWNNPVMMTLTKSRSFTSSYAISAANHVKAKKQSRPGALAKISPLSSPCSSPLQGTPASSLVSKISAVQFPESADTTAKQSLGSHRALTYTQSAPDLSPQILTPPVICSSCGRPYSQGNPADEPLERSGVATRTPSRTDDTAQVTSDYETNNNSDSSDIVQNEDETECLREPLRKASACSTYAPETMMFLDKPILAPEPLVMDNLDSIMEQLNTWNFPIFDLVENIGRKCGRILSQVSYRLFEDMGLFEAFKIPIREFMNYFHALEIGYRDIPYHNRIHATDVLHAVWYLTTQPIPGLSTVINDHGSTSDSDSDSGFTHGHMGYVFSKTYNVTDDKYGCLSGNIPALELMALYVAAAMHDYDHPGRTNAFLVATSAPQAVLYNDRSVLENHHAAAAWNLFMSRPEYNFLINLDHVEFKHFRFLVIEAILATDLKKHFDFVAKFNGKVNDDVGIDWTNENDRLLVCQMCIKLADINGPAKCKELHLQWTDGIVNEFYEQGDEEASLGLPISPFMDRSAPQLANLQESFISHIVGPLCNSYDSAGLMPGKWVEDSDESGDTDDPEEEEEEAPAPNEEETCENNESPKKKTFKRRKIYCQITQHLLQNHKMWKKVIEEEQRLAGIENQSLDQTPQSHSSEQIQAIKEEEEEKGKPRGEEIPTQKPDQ

| IC50 [1] [nM] | IC50 [2] [nM] | IC50 [3] [nM] | Compound |
| --- | --- | --- | --- |
| 210 | 95 | 12 | C[C@@H](CCO)Nc1ccc(C2=NNC(=O)OC2)cc1C(F)(F)F [Example 246, 5-[4-{[(2S)-4-Hydroxybutan-2-yl]amino}-3-(trifluoromethyl)phenyl]-3,6-dihydro-2H-1,3,4-oxadiazin-2-one] |
| 54 | 45 | 4 | Cn1nccc1CNc1ccc(C2=NNC(=O)OC2)cc1C(F)(F)F [Example 236, 5-[4-{[(1-Methyl-1H-pyrazol-5-yl)methyl]amino}-3-(trifluoromethyl)phenyl]-3,6-dihydro-2H-1,3,4-oxadiazin-2-one] |
| 100 | 58 | 7 | NC(=O)C1CCCN(c2ccc(C3=NNC(=O)OC3)cc2C(F)(F)F)C1 (racemic) [Example 230, (rac)-1-[4-(2-Oxo-3,6-dihydro-2H-1,3,4-oxadiazin-5-yl)-2-(trifluoromethyl)phenyl]piperidine-3-carboxamide] |
| 31 | 45 | 2 | N#CCCCNc1ccc(C2=NNC(=O)OC2)cc1C(F)(F)F [Example 254, 4-[4-(2-Oxo-3,6-dihydro-2H-1,3,4-oxadiazin-5-yl)-2-(trifluoromethyl)anilino]butanenitrile] |
| 120 | 120 | 2 | O=C1NN=C(c2ccc(N3CC[C@H]3CO)c(C(F)(F)F)c2)CO1 [Example 250, 5-{4-[(2S)-2-(Hydroxymethyl)azetidin-1-yl]-3-(trifluoromethyl)phenyl}-3,6-dihydro-2H-1,3,4-oxadiazin-2-one] |
| 73 | 78 | 2 | O=C1NN=C(c2ccc(N3CC[C@H](O)C3)c(C(F)(F)F)c2)CO1 [Example 234, 5-{4-[(3S)-3-Hydroxypyrrolidin-1-yl]-3-(trifluoromethyl)phenyl}-3,6-dihydro-2H-1,3,4-oxadiazin-2-one] |
| 100 | 48 | 6 | CCOC1CN(c2ccc(C3=NNC(=O)OC3)cc2C(F)(F)F)C1 [Example 243, 5-[4-(3-Ethoxyazetidin-1-yl)-3-(trifluoromethyl)phenyl]-3,6-dihydro-2H-1,3,4-oxadiazin-2-one] |
| 140 | 61 | 6 | CC1(C)CC1CNc1ccc(C2=NNC(=O)OC2)cc1C(F)(F)F (racemic) [Example 248, (rac)-5-[4-{[(2,2-Dimethylcyclopropyl)methyl]amino}-3-(trifluoromethyl)phenyl]-3,6-dihydro-2H-1,3,4-oxadiazin-2-one] |
| 140 | 120 | 0.4 | O=C1NN=C(c2ccc(NCc3cc[nH]n3)c(C(F)(F)F)c2)CO1 [Example 237, 5-[4-{[(1H-Pyrazol-3-yl)methyl]amino}-3-(trifluoromethyl)phenyl]-3,6-dihydro-2H-1,3,4-oxadiazin-2-one] |
| 100 | 75 | 3 | O=C1NN=C(c2ccc(NCC3CCOC3)c(C(F)(F)F)c2)CO1 (racemic) [Example 245, (rac)-5-[4-{[(Oxolan-3-yl)methyl]amino}-3-(trifluoromethyl)phenyl]-3,6-dihydro-2H-1,3,4-oxadiazin-2-one] |
| 110 | 100 | 1 | O=C1NN=C(c2ccc(NCC3(CO)CCC3)c(C(F)(F)F)c2)CO1 [Example 249, 5-[4-({[1-(Hydroxymethyl)cyclobutyl]methyl}amino)-3-(trifluoromethyl)phenyl]-3,6-dihydro-2H-1,3,4-oxadiazin-2-one] |
| 76 | 100 | 5 | O=C1NN=C(c2ccc(N3CC4(C3)CS(=O)(=O)C4)c(C(F)(F)F)c2)CO1 [Example 255, 6-[4-(2-Oxo-3,6-dihydro-2H-1,3,4-oxadiazin-5-yl)-2-(trifluoromethyl)phenyl]-2λ^6-thia-6-azaspiro[3.3]heptane-2,2-dione] |
| 150 | 120 | 3 | O=C1NN=C(c2ccc(NCc3ncccn3)c(C(F)(F)F)c2)CO1 [Example 244, 5-[4-{[(Pyrimidin-2-yl)methyl]amino}-3-(trifluoromethyl)phenyl]-3,6-dihydro-2H-1,3,4-oxadiazin-2-one] |
| 250 | 86 | 8 | O=C1NN=C(c2ccc(N[C@@H]3C[C@@H]4CC[C@@H]3C4)c(C(F)(F)F)c2)CO1 [Example 233, 5-[4-{[(1R,2R,4R)-Bicyclo[2.2.1]heptan-2-yl]amino}-3-(trifluoromethyl)phenyl]-3,6-dihydro-2H-1,3,4-oxadiazin-2-one] |
| 86 | 110 | 1 | O=C1NN=C(c2ccc(N3CC4CC4C3)c(C(F)(F)F)c2)CO1 (centres unmarked) [Example 252, 5-[4-(3-Azabicyclo[3.1.0]hexan-3-yl)-3-(trifluoromethyl)phenyl]-3,6-dihydro-2H-1,3,4-oxadiazin-2-one] |
| 920 | 400 | 7 | CC[C@@H](CO)Nc1ccc(C2=NNC(=O)OC2)cc1C(F)(F)F [Example 228, 5-[4-{[(2S)-1-Hydroxybutan-2-yl]amino}-3-(trifluoromethyl)phenyl]-3,6-dihydro-2H-1,3,4-oxadiazin-2-one] |
|  |  | > 100 | CN(C)C1CCN(c2ccc(C3=NNC(=O)OC3)cc2C(F)(F)F)C1 (centres unmarked) [Example 310, 5-{4-[3-(dimethylamino)pyrrolidin-1-yl]-3-(trifluoromethyl)phenyl}-3,6-dihydro-2H-1,3,4-oxadiazin-2-one] |
|  |  | > 100 | CC(=O)NCCNc1ccc(C2=NNC(=O)OC2)cc1C(F)(F)F [Example 316, N-{2-[4-(2-oxo-3,6-dihydro-2H-1,3,4-oxadiazin-5-yl)-2-(trifluoromethyl)anilino]ethyl}acetamide] |
|  |  | 35 | O=C1NN=C(c2ccc(NCCc3cnc[nH]3)c(C(F)(F)F)c2)CO1 [Example 291, 5-[4-{[2-(1H-imidazol-5-yl)ethyl]amino}-3-(trifluoromethyl)phenyl]-3,6-dihydro-2H-1,3,4-oxadiazin-2-one] |
|  |  | 26 | CN(c1ccc(C2=NNC(=O)OC2)cc1C(F)(F)F)C1CCC(O)CC1 (centres unmarked) [Example 289, 5-{4-[(4-hydroxycyclohexyl)(methyl)amino]-3-(trifluoromethyl)phenyl}-3,6-dihydro-2H-1,3,4-oxadiazin-2-one] |
|  |  | 13 | CN(CC(C)(C)O)c1ccc(C2=NNC(=O)OC2)cc1C(F)(F)F [Example 283, 5-{4-[(2-hydroxy-2-methylpropyl)(methyl)amino]-3-(trifluoromethyl)phenyl}-3,6-dihydro-2H-1,3,4-oxadiazin-2-one] |
